Assay results as given in US20240287062A1, “NAPHTHYRIDONE COMPOUNDS FOR INHIBITION OF RAF KINASES AND/OR BCR-ABL TYROSINE KINASES” (Enliven Inc., priority 2021, published 2024).

Legend:
SRC = SRC (Homo sapiens (Human), UniProt P12931); experiment: Luminescence-based SRC kinase assay (Km ATP), ADP-Glo; assay type: biochemical; conditions: compound at 100 nM concentration
Method: (§1) Kinase activity of SRC was measured using the ADP-Glo system (Promega). Compounds were diluted in DMSO at 100 μM. 20 nL of compound or DMSO only (high control, HC) were added to a 384-well plate (OptiPlate-384, PerkinElmer) using an Echo550 liquid handler (Labcyte). 15 μL of kinase solution (10 mM MgCl2, 0.01% Brij-35, 2 mM DTT, 0.05% BSA, 1 mM EGTA, 50 mM HEPES pH 7.5, and 0.532 nM SRC [Carna Biosciences]) were added to each well of the 384-well plate containing the compounds. No enzyme control wells were included (low control, LC). The plate was incubated at room temperature for 30 minutes. 5 μL of a second solution containing 10 mM MgCl2, 0.01% Brij-35, 2 mM DTT, 0.05% BSA, 1 mM EGTA, 50 mM HEPES pH 7.5, 6 μM Peptide 4 (Perkin Elmer, Cat No 760348), and 200 μM ATP were added to each well to start the kinase reaction. The plate was incubated for 90 minutes at room temperature. 20 μL of ADP-Glo reagent (Promega) were then added to each well and the plate was incubated for 40 minutes at room temperature. […] During this step, ADP was converted to ATP, a substrate for luciferase, to produce luminescence signal. Luminescence was measured on an Envision plate reader (Perkin Elmer). Luminescence signal positively correlates with kinase activity. The percent inhibition of kinase activity was calculated as follows: percent inhibition=100×(LumHC−LumSample)/(LumHC−LumLC). […]

HepG2 (NRAS Q61L) = experiment: Cell viability assay (CellTiter Glo); assay type: cell-based; conditions: Homo sapiens, HepG2, 120 h, HepG2, 750 cells per well, read-out: BRAF Cytotoxicity (IC50, nM) HEPG2
Method: Cell viability was measured in the following MAPK pathway mutant cancer cell lines: A375 (BRAF V600E), HepG2 (NRAS Q61L), SK-MEL-30 (NRAS Q61K), and OCI-AML-2 (MBNL1-CRAF fusion). Cell viability was also measured in K562 cells.
A375, HepG2, SK-MEL-30 and OCI-AML-2 cells were grown in the appropriate growth medium as described in Table B2 below, and harvested at 50-80% confluence. Cells were counted and seeded at their appropriate density (see Table B1) in a 384-well plate (Corning 3570). A375, HepG2 and SK-MEL-30 were allowed to adhere overnight prior to treatment and the OCI-AML-2 were treated immediately for the indicated drug treatment times (Table 6).
Table 6 provides the growth media, number of cells seeded per well and drug treatment times for the each cell line. K562 cells were grown as described in Example B1 above.
Compounds were dissolved in DMSO and serially diluted. Serially-diluted compound or a DMSO only control (high control, “HC”) was added to the plated cells in each well. Compounds were tested at concentrations of about 10 μM to 0.51 nM, using three-fold dilutions. The final proportion of DMSO never exceeded 0.1%.
Plates were placed in a 37° C., […] incubator for the indicated treatment times (Table B1). Plates were then removed from the incubator and equilibrated for 15 minutes at room temperature. 40 μl of CellTiter Glo reagent (Promega) was added to measure the relative level of metabolically active cells by quantifying intracellular ATP concentrations. Plates were incubated for 30 minutes at room temperature, and luminescence was measured. Percent viability was normalized to a vehicle control only using the following formula: 0 viability=100×(LumSample−LumLC)/(LumHC−LumLC). Graphical curves were fitted using a nonlinear regression model with a sigmoidal dose response.

c-KIT = c-KIT (Homo sapiens (Human), UniProt P10721); experiment: Luminescence-based c-KIT kinase assay (Km ATP), ADP-Glo; assay type: biochemical; conditions: compound at 100 nM concentration
Chain of c-KIT (P10721 26-976): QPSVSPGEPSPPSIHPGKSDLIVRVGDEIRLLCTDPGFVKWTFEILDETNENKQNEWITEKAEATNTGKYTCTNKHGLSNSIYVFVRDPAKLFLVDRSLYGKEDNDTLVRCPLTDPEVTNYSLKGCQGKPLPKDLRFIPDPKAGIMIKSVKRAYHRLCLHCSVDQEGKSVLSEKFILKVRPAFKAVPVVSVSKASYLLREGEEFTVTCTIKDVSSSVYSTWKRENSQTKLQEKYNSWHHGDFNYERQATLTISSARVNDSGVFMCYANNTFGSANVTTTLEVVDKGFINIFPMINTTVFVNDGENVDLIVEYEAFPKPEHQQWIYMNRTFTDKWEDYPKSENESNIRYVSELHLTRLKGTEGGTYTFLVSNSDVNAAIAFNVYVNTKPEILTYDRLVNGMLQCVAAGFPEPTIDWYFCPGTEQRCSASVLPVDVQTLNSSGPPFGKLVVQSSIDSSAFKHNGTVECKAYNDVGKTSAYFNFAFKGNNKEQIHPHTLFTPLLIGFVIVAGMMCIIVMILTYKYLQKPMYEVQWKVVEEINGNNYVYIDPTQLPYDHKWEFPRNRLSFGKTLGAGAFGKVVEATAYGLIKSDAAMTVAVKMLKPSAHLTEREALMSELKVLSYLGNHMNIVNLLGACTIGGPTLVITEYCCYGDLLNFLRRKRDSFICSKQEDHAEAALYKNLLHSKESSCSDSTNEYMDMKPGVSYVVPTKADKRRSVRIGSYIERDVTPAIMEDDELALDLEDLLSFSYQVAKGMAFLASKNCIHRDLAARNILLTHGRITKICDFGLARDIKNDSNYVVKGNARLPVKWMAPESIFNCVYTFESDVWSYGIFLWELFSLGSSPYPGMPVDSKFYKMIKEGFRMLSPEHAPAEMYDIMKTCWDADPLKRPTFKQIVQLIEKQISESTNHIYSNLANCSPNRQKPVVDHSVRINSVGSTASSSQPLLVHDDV
Method: as §1, with “c-KIT” for “SRC”, “13.3” for “0.532”, “0.8 μg/ml Poly(Glu-Tyr) (Sigma,” for “6 μM Peptide 4 (Perkin Elmer,”, “97105-00-5),” for “760348),”, “400” for “200”

Chain of SRC (P12931 whole entry): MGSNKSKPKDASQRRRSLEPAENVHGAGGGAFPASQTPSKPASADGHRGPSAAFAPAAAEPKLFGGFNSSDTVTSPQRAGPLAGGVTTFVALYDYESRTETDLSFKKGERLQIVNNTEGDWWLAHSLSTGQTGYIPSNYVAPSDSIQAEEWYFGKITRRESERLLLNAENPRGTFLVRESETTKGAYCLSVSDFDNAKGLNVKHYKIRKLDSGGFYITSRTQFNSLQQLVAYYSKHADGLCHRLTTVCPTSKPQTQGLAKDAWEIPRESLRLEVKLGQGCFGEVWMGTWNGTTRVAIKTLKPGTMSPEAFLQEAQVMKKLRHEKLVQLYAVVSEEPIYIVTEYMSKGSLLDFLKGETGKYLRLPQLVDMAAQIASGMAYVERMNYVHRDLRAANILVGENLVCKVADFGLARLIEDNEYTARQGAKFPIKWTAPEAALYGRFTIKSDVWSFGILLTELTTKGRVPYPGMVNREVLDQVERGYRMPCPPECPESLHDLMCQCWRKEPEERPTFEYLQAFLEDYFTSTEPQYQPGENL

SMILES	inhibition at 0.1 µM (SRC)	IC50 (HepG2 (NRAS Q61L))	inhibition at 0.1 µM (c-KIT)
Cc1c(F)cncc1-c1cc2cnc(NC(=O)C3CC3)cc2n(C)c1=O [Compound 2, N-[3-(5-fluoro-4-methylpyridin-3-yl)-1-methyl-2-oxo-1,6-naphthyridin-7-yl]cyclopropanecarboxamide]	77%	334 nM	17%
Cc1c(F)cncc1-c1cc2cnc(NC(=O)[C@@H]3C[C@@H]3F)cc2n(C)c1=O [Compound 28, (1S,2S)-2-fluoro-N-[3-(5-fluoro-4-methylpyridin-3-yl)-1-methyl-2-oxo-1,6-naphthyridin-7-yl]cyclopropane-1-carboxamide]	48%	496 nM	7.3%
